According to PubChem BioAssay AID1996:
Values after ≈ are worked out from the molar mass of the structure shown.

Conditions: buffer; pH 7.4; 200.0 µM

| SMILES | solubility kinetic |
| --- | --- |
| CCOC(=O)C(=CNc1ccc(Oc2cncc(Cl)c2)nc1)C(=O)OCC | 5 µg/mL (≈ 12.8 µM) |
| Cc1n(Cc2ccccc2)c2cc([N+](=O)[O-])ccc2[n+]1Cc1ccccc1.[Cl-] | > 59.1 µg/mL |
| CCOc1ccc2nc(N3C(=O)CNC3=S)sc2c1 | 2.5 µg/mL (≈ 8.52 µM) |
| CCCCOC(=O)CSc1nc2ccccc2o1 | 5.4 µg/mL (≈ 20.4 µM) |
| CCC(Sc1nc2ccccc2o1)C(=O)O (stereo unspecified) | 35.2 µg/mL (≈ 148 µM) |
| CC(C)NC(=O)NNC(=O)c1nn(-c2ccc(F)cc2)ccc1=O | > 50 µg/mL |
| CCOC(=O)C1(CCc2ccccc2)CCN(CC(O)CO)CC1 (stereo unspecified) | 39.8 µg/mL (≈ 119 µM) |
| COc1ccc(/C=C/c2nc(-c3ccccc3)cc(=O)[nH]2)cc1 | < 0.3 µg/mL |
| O=C(CSc1nc2ccccc2c(=O)[nH]1)Nc1ccc([N+](=O)[O-])cc1 | 5 µg/mL (≈ 14 µM) |
| O=C(C#Cc1ccccc1)Nc1cccc(F)c1 | 8.7 µg/mL (≈ 36.4 µM) |
| COc1ccc(/C=C/C(=O)NC2CCS(=O)(=O)C2)cc1 (stereo unspecified) | > 44.3 µg/mL |
| O=C(C(=S)N1CCOCC1)c1c[nH]c2ccccc12 | > 41.2 µg/mL |
| Cc1ccc(N2C(=O)C(Cl)=C(N3CCOCC3)C2=O)c(C)c1 | 36.3 µg/mL (≈ 113 µM) |
| Cc1cccc(C(=O)OCC(=O)Nc2ccc(F)cc2)c1 | 6.3 µg/mL (≈ 21.9 µM) |
| COc1ccc(NC(=O)c2cc3ccccc3cc2O)cc1 | 1.5 µg/mL (≈ 5.11 µM) |
| CC(C)CC(=O)NC(c1ccccc1)c1c(O)ccc2ccccc12 (stereo unspecified) | < 0.7 µg/mL |
| COc1cccc(N2CCN(CC(=O)NCc3ccccc3)CC2)c1 | 50.3 µg/mL (≈ 148 µM) |
| O=C(NCC(c1ccco1)N1CCN(c2ccccc2F)CC1)c1cccs1 (stereo unspecified) | 54.3 µg/mL (≈ 136 µM) |
| NS(=O)(=O)c1ccc(NC(=O)COC(=O)C2CC2)cc1 | > 44.7 µg/mL |
| Clc1cccc(N2CCN(c3ncnc4nc[nH]c34)CC2)c1 | 0.8 µg/mL (≈ 2.54 µM) |
| O=C(COc1ccccc1[N+](=O)[O-])NCC1COc2ccccc2O1 (stereo unspecified) | 24.2 µg/mL (≈ 70.3 µM) |
| NC(=O)c1c(NC(=O)c2cccnc2)sc2c1CCCCC2 | 6 µg/mL (≈ 19 µM) |

| SMILES | solubility kinetic |
| --- | --- |
| Cc1nonc1NC(=O)CSc1nnc(N)s1 | > 40.8 µg/mL |
| COC(=O)c1c(-c2c(Cl)cccc2Cl)noc1NC(=O)N(C)C | 49.3 µg/mL (≈ 138 µM) |
| Cc1ccccc1NC(=O)c1ccccn1 | 28.9 µg/mL (≈ 136 µM) |
| Cc1ccc(-c2c(C#N)c(N)nc3c2CCCC3)o1 | 4.1 µg/mL (≈ 16.2 µM) |
| CC(C)(C)OC(=O)N1CCCN(C(=O)c2ccc(Cl)cc2)CC1 | > 50.8 µg/mL |
| CC1(C)CC(=O)C(N=Nc2cccnc2)=C(O)C1 | > 36.8 µg/mL |
| CCOC(=O)c1cc2ccccc2n1CC(=O)c1ccccc1 | < 0.7 µg/mL |
| CCOC(=O)CSc1nc(C)c2cccc(C)c2n1 | 30.6 µg/mL (≈ 111 µM) |
| Cc1cc(C)nc(SC/C=C/c2ccccc2)n1.Cl | 5.4 µg/mL |
| Cn1ccc(C(=O)N/N=C/c2ccncc2)n1 | > 34.4 µg/mL |
| O=C1CSC(c2ccc([N+](=O)[O-])cc2)N1c1ccccc1F (stereo unspecified) | > 47.7 µg/mL |
| O=C(c1cc(=O)[nH]c2ccccc12)N1CCc2ccccc2C1 | 42.9 µg/mL (≈ 141 µM) |
| O=c1c2ccccc2nc(Cc2ccccc2)n1-c1ccccc1O | > 49.3 µg/mL |
| O=C(Nc1nc2ccccc2s1)c1ccccc1[N+](=O)[O-] | 2.9 µg/mL (≈ 9.69 µM) |
| COc1ccc(CNC(=O)C(C)OC(=O)c2cccc(N(C)C)c2)cc1 (stereo unspecified) | 37.8 µg/mL (≈ 106 µM) |
| CCOc1ccc(NC(=O)CNc2cccc(S(=O)(=O)N3CCCCCC3)c2)cc1OCC | 18.8 µg/mL (≈ 39.5 µM) |
| C=CCn1c(SCC(=O)Nc2sc3c(c2C#N)CCC(C)C3)nc2cc(C(=O)O)ccc2c1=O (stereo unspecified) | 15 µg/mL (≈ 30.3 µM) |
| O=Cc1ccc(OCCOc2ccc([N+](=O)[O-])cc2)cc1 | < 0.6 µg/mL |
| Cc1cc(=S)c2cccc(C)c2[nH]1 | 26.5 µg/mL (≈ 140 µM) |
| COc1ccc(Oc2ncccc2NC(=O)c2cccc(C)c2C)cc1 | 5.9 µg/mL (≈ 16.9 µM) |
| Cc1ccc(OCC(=O)NCCNC(=O)c2ccncc2)cc1C | > 49.1 µg/mL |
| Cc1ccc(CN(C)C(=O)c2cc(S(=O)(=O)N3CCOCC3)ccc2F)o1 | > 59.5 µg/mL |

| SMILES | solubility kinetic |
| --- | --- |
| CCN1CCCC1Cn1cnc2c([nH]c3ccc(OC)cc32)c1=O (stereo unspecified) | > 49 µg/mL |
| O=C(COC(=O)c1ccc(F)c(S(=O)(=O)N2CCOCC2)c1)NCc1ccccc1 | > 65.5 µg/mL |
| CCOc1ncccc1C(=O)OCC(=O)Nc1ccc(Cl)cn1 | 15 µg/mL (≈ 44.7 µM) |
| COc1cc2[nH]c(=S)n(C3CC3)c(=O)c2cc1OC | 7.6 µg/mL (≈ 27.3 µM) |
| O=C(CNC(=O)c1ccc(Br)cc1)c1ccccc1 | 1.3 µg/mL (≈ 4.09 µM) |
| COc1ccccc1N1CCNC(C)C1=O.Cl (stereo unspecified) | 33.4 µg/mL |
| CC(C)n1c(=S)[nH]c2cc(Cl)ccc21 | 11 µg/mL (≈ 48.5 µM) |
| CCS(=O)(=O)N1CCc2nc(-c3ccccc3)sc2C1 | > 46.3 µg/mL |
| CN(C)c1ccc(/C=C/C(=O)c2ccc3c(c2)OCO3)cc1 | 2.9 µg/mL (≈ 9.82 µM) |
| CC(=O)N1CCN=C1SCc1cccc(Cl)c1 | > 40.3 µg/mL |
| CCCCCCCCCCCCCCCC[N+](C)(C)CC.[Br-] | 34.5 µg/mL |
| CC1(C)CCC(=O)N(c2ccc(OC(F)(F)F)cc2)C1=O | > 45.2 µg/mL |
| Cc1ccc(S(=O)(=O)N2CCOCC2)cc1C(=O)NC1=NCCS1 | > 55.4 µg/mL |
| CC(=O)Nc1cccc(NC(=O)Cc2ccc3ccccc3c2)c1 | 0.9 µg/mL (≈ 2.83 µM) |
| COc1cc2c(cc1OC)C(c1cccc([N+](=O)[O-])c1)NC(=O)C2 (stereo unspecified) | 26.1 µg/mL (≈ 79.5 µM) |
| CC(CN1CCCCC1)OC(=O)c1cccc(F)c1.Cl (stereo unspecified) | 42.4 µg/mL |
| O=C(O)/C=C/c1cccc(NC(=O)Nc2ccc([N+](=O)[O-])cc2)c1 | > 49.1 µg/mL |
| O=C(O)c1c2c(nc3ccccc13)/C(=C/c1cccc([N+](=O)[O-])c1)CCC2 | > 54.1 µg/mL |
| Cc1cc(N2CCCC2)nc2ccccc12 | 31.6 µg/mL (≈ 149 µM) |
| Cc1ccc(C(=O)NCCCN2CCOCC2)c(Cl)c1 | > 44.5 µg/mL |
| COc1cccc(C(=O)NCc2ccco2)c1OC | > 39.2 µg/mL |
| COc1cc(NC(=O)C2CC3CCC2C3)c(OC)cc1Cl (stereo unspecified) | 3.5 µg/mL (≈ 11.3 µM) |

| SMILES | solubility kinetic |
| --- | --- |
| CC(=O)c1sc(NC(=O)CCCOc2ccccc2C)nc1C | < 0.4 µg/mL |
| Cn1c(/C(C#N)=C/c2ccc(O)cc2)nc2ccccc21 | 5.5 µg/mL (≈ 20 µM) |
| CC(NC(=O)c1cc(Br)ccc1Cl)c1ccccc1 (stereo unspecified) | 3.8 µg/mL (≈ 11.2 µM) |
| O=C(Nc1ccc2ccccc2n1)C1CCCCC1 | 26.6 µg/mL (≈ 105 µM) |
| NC(=O)c1ccccc1 | > 18.2 µg/mL |
| COc1ccc(/C=C2\Oc3cc(OC(=O)N4CCOCC4)ccc3C2=O)cc1 | < 0.8 µg/mL |
| CC(=O)NC(=S)Nc1cccc2ccc(C)nc12 | 1.1 µg/mL (≈ 4.24 µM) |
| CC(NC(=O)c1ccccc1)C(=O)N/N=C/c1ccco1 (stereo unspecified) | > 42.8 µg/mL |
| CCOc1cccc2cc(C(=O)N3CC(C)OC(C)C3)c(=O)oc12 (stereo unspecified) | > 49.7 µg/mL |
| O=C(NC(=S)Nc1cccnc1Cl)c1ccco1 | 32.2 µg/mL (≈ 114 µM) |
| COc1cccc(NC(=O)/C=C/c2ccco2)c1 | > 36.5 µg/mL |
| CC(=O)Nc1nc(C)c(C(C)C)s1 | > 29.7 µg/mL |
| Cc1cc(C(=O)CCl)c(C)n1-c1ccon1 | 33.7 µg/mL (≈ 141 µM) |
| CCOC(=O)c1ccc(Nc2ncnc3ccccc23)cc1.Cl | 1.7 µg/mL |
| COc1cccc2c1O/C(=N\O)C(C(=O)Nc1cccc(C)c1C)C2 (stereo unspecified) | > 51.1 µg/mL |
| O=C(NC1CCN(Cc2ccc(Cl)cc2Cl)CC1)c1ccccc1 | 2.3 µg/mL (≈ 6.33 µM) |
| CCC(=O)Nc1cc2c3c(c1)CCC(=O)N3CCC2 | > 38.7 µg/mL |
| O=C1/C(=C/c2ccsc2)N2CCC1CC2 | 25.9 µg/mL (≈ 118 µM) |
| CC1(C)CC(/C=C/c2ccccc2)=Nc2ccccc2N1 | 27.2 µg/mL (≈ 98.4 µM) |
| CC(=O)Nc1c(C)nn(-c2ccc([N+](=O)[O-])cc2)c1C | > 41.1 µg/mL |
